PMC7504751, “Potential of 2-Chloro-N-(4-fluoro-3-nitrophenyl)acetamide Against Klebsiella pneumoniae and In Vitro Toxicity Analysis” (Molecules, 2020)
In brackets after ≈: the same amount, converted by molar mass. Where two headings read alike, the source gives them in different places.

Assays:
[1] = system: K. pneumoniae strains; assay: Minimum bactericidal concentration (MBC); type: cell-based, Klebsiella pneumoniae; settings: for Effect: from MBC/MIC ratio
Description: The clinical isolates strains of K. pneumoniae were used in this study belong to the MICOTECA of the Antibacterial and Antifungal Activity Research Laboratory of the Federal University of Paraíba, Brazil, which are: KP-25, KP-26, KP-56, KP-83, KP-87, KP-138, KP-143, KP-166, KP-173, KP-176, KP-260, and KP-326. The American Type Culture Collection strain ATCC-700603 was used as controls. For use in the assays, bacterial suspensions were prepared in 0.9% saline solution, from fresh cultures, and adjusted to the McFarland standard 0.5 scale.
After MIC reading, the A2 minimum bactericidal concentration was determined by removing aliquots from the microdilution plates in the wells corresponding to concentrations equivalent to MIC, 2× MIC, 4× MIC, and 8× MIC and inoculating in new plates containing only culture broth. All controls were performed in parallel. MBC is defined as the lowest concentration capable of causing complete inhibition of bacterial growth after 24 h at 35 ± 2 °C [21, 44].

[2] = Hemolytic activity; type: cell-based; settings: human, 0.5% red blood cell suspension
Description: The tests were performed according to the recommendations established by the Code of Ethics of the World Medical Association, after approval by the ethics committee of the Centro Universitário de Patos (number: 3621284). Blood samples (types A, B, and O) and smears of oral mucosa were donated by young, healthy adults.
The red blood cell (RBC) samples from blood donors were diluted in 0.9% NaCl at a 1:30 ratio and centrifuged at 2500 rpm for five minutes to obtain the 0.5% suspension free of white blood cells and platelets. Then, the A2 substance was added to the red blood cell suspensions, at 50, 100, 500, and 1000 µg/mL concentrations. As controls, a suspension of red cells without treatment (0% hemolysis) were used as a negative control and a suspension of red cells treated with 1% Triton X-100 (100% hemolysis) as a positive control. The assay was incubated for one hour at 22 ± 2 °C. After that time, the samples were centrifuged at 700× g for 5 min and hemolysis was quantified by spectrophotometry at a wavelength of 540 nm.

## O=C(CCl)Nc1ccc(F)c([N+](=O)[O-])c1 [A2, 2-chloro-N-(4-fluoro-3-nitrophenyl)acetamide]
[1]; Klebsiella pneumoniae, ATCC700603, strain ATCC-700603, read-out: MBC
  MBC: 512 µg/mL (≈ 2200 µM)
[1]; Klebsiella pneumoniae, all K. pneumoniae strains used in this study, read-out: MBC
  MBC: 512 µg/mL (≈ 2200 µM)
[1]; all K. pneumoniae strains, from the MIC
  mode of action (bactericidal / bacteriostatic): bactericidal
[1]; strain ATCC-700603
  Effect: Bactericide (bactericidal activity when the ratio between MBC and MIC is ≤4)
[1]; strain KP-25
  MBC: 512 µg/mL (≈ 2200 µM)
  Effect: Bactericide (bactericidal activity when the ratio between MBC and MIC is ≤4)
[1]; strain KP-26
  MBC: 512 µg/mL (≈ 2200 µM)
  Effect: Bactericide (bactericidal activity when the ratio between MBC and MIC is ≤4)
[1]; strain KP-56
  MBC: 512 µg/mL (≈ 2200 µM)
  Effect: Bactericide (bactericidal activity when the ratio between MBC and MIC is ≤4)
[1]; strain KP-83
  MBC: 512 µg/mL (≈ 2200 µM)
  Effect: Bactericide (bactericidal activity when the ratio between MBC and MIC is ≤4)
[1]; strain KP-87
  MBC: 512 µg/mL (≈ 2200 µM)
  Effect: Bactericide (bactericidal activity when the ratio between MBC and MIC is ≤4)
[1]; strain KP-138
  MBC: 512 µg/mL (≈ 2200 µM)
  Effect: Bactericide (bactericidal activity when the ratio between MBC and MIC is ≤4)
[1]; strain KP-143
  MBC: 512 µg/mL (≈ 2200 µM)
  Effect: Bactericide (bactericidal activity when the ratio between MBC and MIC is ≤4)
[1]; strain KP-166
  MBC: 512 µg/mL (≈ 2200 µM)
  Effect: Bactericide (bactericidal activity when the ratio between MBC and MIC is ≤4)
[1]; strain KP-173
  MBC: 512 µg/mL (≈ 2200 µM)
  Effect: Bactericide (bactericidal activity when the ratio between MBC and MIC is ≤4)
[1]; strain KP-176
  MBC: 512 µg/mL (≈ 2200 µM)
  Effect: Bactericide (bactericidal activity when the ratio between MBC and MIC is ≤4)
[1]; strain KP-260
  MBC: 512 µg/mL (≈ 2200 µM)
  Effect: Bactericide (bactericidal activity when the ratio between MBC and MIC is ≤4)
[1]; strain KP-326
  MBC: 512 µg/mL (≈ 2200 µM)
  Effect: Bactericide (bactericidal activity when the ratio between MBC and MIC is ≤4)
[2]; blood types A, B and O, 50–500 µg/mL, all tested blood types, 1 h at 22 ± 2 °C
  hemolysis at 1 h: 4 to 20%
[2]; blood type O, read-out: hemolysis (average erythrocyte lysis)
  hemolysis at 1 h, 1000 µg/mL: 8%
[2]; blood types A and B, read-out: hemolysis
  hemolysis at 1 h, 1000 µg/mL: 37 to 47%
